Experimental data reported in patent US20050137807A1, “Method of visualization of the ADME properties of chemical substances” (priority 2003, published 2005).
Converted amounts (≈) assume the structure as drawn.

Tests used:
[1] = cited from earlier work
[2] = cited from earlier work; remark: listed apart in the source
[3] = water solubility, from the literature; cited from earlier work
[4] = membrane affinity as a measure of the lipophilicity (TRANSIL technology); format: physicochemical
human serum albumin = human serum albumin (Homo sapiens, UniProt P02768); assay: binding constant to human serum albumin (TRANSIL technology)
Excerpt: The effective molecular weight (MW) is obtained simply from the respective empirical formula of the substance. The waters solubilities and the typical administered dosages of these commercially available products are furthermore known from the literature.
The ADME maps in FIGS. 5 to 10 show by way of example a selection of commercially available pharmaceutical substances. The substance names and the associated experimental measurement values for their physicochemical properties are summarised in Table 1.

[5] = in vivo; cited from earlier work
[6] = log binding constant to human serum albumin, TRANSIL

Chain of human serum albumin (P02768 25-609): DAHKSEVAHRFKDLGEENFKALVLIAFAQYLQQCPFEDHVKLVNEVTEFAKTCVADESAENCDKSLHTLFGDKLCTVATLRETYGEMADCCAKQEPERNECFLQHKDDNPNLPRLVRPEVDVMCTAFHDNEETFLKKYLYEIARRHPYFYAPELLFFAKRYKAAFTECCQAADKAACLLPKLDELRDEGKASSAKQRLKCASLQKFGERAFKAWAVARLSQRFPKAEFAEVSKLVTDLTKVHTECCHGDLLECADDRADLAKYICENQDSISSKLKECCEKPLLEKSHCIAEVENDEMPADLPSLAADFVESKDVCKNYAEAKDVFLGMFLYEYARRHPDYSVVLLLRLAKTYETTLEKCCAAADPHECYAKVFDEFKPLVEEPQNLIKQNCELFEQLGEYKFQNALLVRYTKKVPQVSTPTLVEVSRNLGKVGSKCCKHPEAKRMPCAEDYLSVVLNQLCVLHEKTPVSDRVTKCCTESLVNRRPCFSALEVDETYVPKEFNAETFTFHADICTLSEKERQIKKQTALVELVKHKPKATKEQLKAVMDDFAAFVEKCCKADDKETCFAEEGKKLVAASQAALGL

## COC(=O)c1ccc(C(F)(F)F)nc1S(=O)(=O)NC(=O)Nc1nc(OC)cc(OC)n1 [flupyrsulfuron-methyl-sodium]
[1]
  logP: 1.3
[2]
  pKa: 4.9

## OC(Cn1cncn1)(Cn1cncn1)c1ccc(F)cc1F [Fluconazole]
[3]
  Solubility: 1086 mg/L (≈ 3550 µM)

## CN(C)CCCN1c2ccccc2CCc2ccccc21 [Imipramine]
[4]
  LogMA: 3.190
Human serum albumin; human
  LogHSA: −3.301
[3]
  Solubility: 1 mg/L (≈ 3.57 µM)

## COC(=O)c1cc(Oc2ccc(Cl)cc2Cl)ccc1[N+](=O)[O-] [bifenox]
[1]
  logP: 4.5
[2]
  pKa: 13.8

## CN(C)C(=O)Nc1ccc(Cl)c(Cl)c1 [diuron]
[1]
  logP: 2.85
[2]
  pKa: 13.8

## COc1nc(C)nc(NC(=O)NS(=O)(=O)c2ccccc2OCCCl)n1 [triasulfuron]
[1]
  logP: 1.6
[2]
  pKa: 4.64

## CCOC(=O)C1=C(C)NC(C)=C(C(=O)OC)C1c1cccc([N+](=O)[O-])c1 (stereo not drawn) [Nitrendipine]
Human serum albumin; human
  LogHSA: −4.824
[3]
  Solubility: 77 mg/L (≈ 214 µM)

## COc1cc(OC)nc(NC(=O)NS(=O)(=O)c2ncccc2C(=O)N(C)C)n1 [nicosulfuron]
[1]
  logP: 0.5
[2]
  pKa: 4.6

## Oxacepam
[4]
  LogMA: 2.342
Human serum albumin; [6]
  LogHSA: −4.000
[3]
  Solubility: 179 mg/L

## CC(C)(C)NCC(O)COc1cccc2c1CC(O)C(O)C2 (stereo not drawn) [Nadolol]
[4]
  LogMA: 0.602
[3]
  Solubility: 22400 mg/L (≈ 72400 µM)

## Cc1cc(Cl)ccc1OCC(=O)O [MCPA]
[1]
  logP: 2.75
[2]
  pKa: 3.07

## COC(=O)c1c(Cl)nn(C)c1S(=O)(=O)NC(=O)Nc1nc(OC)cc(OC)n1 [halosulfuron-methyl]
[1]
  logP: 2.9
[2]
  pKa: 3.44

## C[C@]12C[C@H](O)[C@H]3[C@@H](CCC4=CC(=O)CC[C@@]43C)[C@@H]1CC[C@@H]2C(=O)CO [Corticosterone]
[4]
  LogMA: 2.531
[3]
  Solubility: 143 mg/L (≈ 413 µM)

## N=C(N)N/N=C/c1c(Cl)cccc1Cl [Guanabenz]
[4]
  LogMA: 0.602
Human serum albumin; human
  LogHSA: −3.745
[3]
  Solubility: 1055 mg/L (≈ 4570 µM)

## O=C(O)c1c(Cl)ccc2cc(Cl)cnc12 [quinclorac]
[1]
  logP: 3.6
[2]
  pKa: 4.34

## C=CCc1ccccc1OCC(O)CNC(C)C (stereo not drawn) [Alprenolol]
[4]
  LogMA: 2.699
[3]
  Solubility: 547 mg/L (≈ 2190 µM)

## CON(C)C(=O)Nc1ccc(Cl)cc1 [monolinuron]
[1]
  logP: 2.2
[2]
  pKa: 13.8

## CNCCCN1c2ccccc2CCc2ccccc21 [Despiramine]
Human serum albumin; [6]
  LogHSA: −3.398
[3]
  Solubility: 0.99 mg/L (≈ 3.72 µM)

## CCOC(=O)c1ccccc1S(=O)(=O)NC(=O)Nc1nc(Cl)cc(OC)n1 [chlorimuron-ethyl]
[1]
  logP: 2.7
[2]
  pKa: 4.2

## O=C(O)COc1ccc(Cl)cc1Cl [2,4-D]
[1]
  logP: 2.58
[2]
  pKa: 2.73

## O=C1NC(=O)C(c2ccccc2)(c2ccccc2)N1 [Phenytoin]
[4]
  LogMA: 2.778
Human serum albumin; human
  LogHSA: −3.639
[3]
  Solubility: 1267 mg/L (≈ 5020 µM)

## COc1nc(C)nc(=NC(=O)NS(=O)(=O)c2ccccc2C(=O)O)[nH]1 [metsulfuron]
[1]
  logP: 2
[2]
  pKa: 3.3

## CC(C)NCC(O)COc1cccc2ccccc12 (stereo not drawn) [Propranolol]
[4]
  LogMA: 3.146
Human serum albumin; human
  LogHSA: −4.028
[3]
  Solubility: 609 mg/L (≈ 2350 µM)

## Cc1cc(C)nc(NC(=O)NS(=O)(=O)c2ccccc2C(=O)O)n1 [sulfometuron]
[1]
  logP: −0.51
[2]
  pKa: 5.2

## NC(=O)N1C(=O)/C(=C(\O)c2cccs2)c2cc(Cl)ccc21 [Tenidap]
[3]
  Solubility: 2676 mg/L (≈ 8340 µM)

## Cc1nccn1CC1CCc2c(c3ccccc3n2C)C1=O (stereo not drawn) [Ondansetron]
[4]
  LogMA: 2.672
Human serum albumin; human
  LogHSA: −3.237
[3]
  Solubility: 5.7 mg/L (≈ 19.4 µM)

## COC(=O)C1=C(C)NC(C)=C(C(=O)OC(C)C)C1c1cccc2nonc12 (stereo not drawn) [Isradipin]
[4]
  LogMA: 3.699
Human serum albumin; [6]
  LogHSA: −4.301
[3]
  Solubility: 49 mg/L (≈ 132 µM)

## Cn1c(=O)c2[nH]cnc2n(C)c1=O [Theophiline]
[4]
  LogMA: 0.886
[3]
  Solubility: 2800 mg/L (≈ 15500 µM)

## COC(=O)C1=C(C)NC(C)=C(C(=O)OCC(C)C)C1c1ccccc1[N+](=O)[O-] (stereo not drawn) [Nisoldipine]
Human serum albumin; human
  LogHSA: −5.319
[3]
  Solubility: 25 mg/L (≈ 64.4 µM)

## C[C@@H](Oc1ccc(Cl)cc1Cl)C(=O)O [dichlorprop-P]
[2]
  pKa: 3.67

## CN(Cc1cnc2nc(N)nc(N)c2n1)c1ccc(C(=O)N[C@@H](CCC(=O)O)C(=O)O)cc1 [Metotrexate]
[4]
  LogMA: 1.176
Human serum albumin; [6]
  LogHSA: −3.796
[3]
  Solubility: 26000 mg/L (≈ 57200 µM)

## CCCN(CCC)S(=O)(=O)c1ccc(C(=O)O)cc1 [Probenecid]
[4]
  LogMA: 1.322
Human serum albumin; human
  LogHSA: −4.004
[3]
  Solubility: 27.1 mg/L (≈ 95 µM)

## CC1(C)S[C@@H]2[C@H](NC(=O)Cc3ccccc3)C(=O)N2[C@H]1C(=O)O [Penicilin G]
[4]
  LogMA: 1.041
Human serum albumin; [6]
  LogHSA: −4.301
[3]
  Solubility: 50 mg/L (≈ 150 µM)

## COc1cccc2c1C(=O)c1c(O)c3c(c(O)c1C2=O)C[C@@](O)(C(=O)CO)C[C@@H]3O[C@H]1C[C@H](N)[C@H](O)[C@H](C)O1 [Doxorubicin]
[4]
  LogMA: 2.322
Human serum albumin; [6]
  LogHSA: −1.886
[3]
  Solubility: 93 mg/L (≈ 171 µM)

## COc1cc2nc(N3CCN(C(=O)C4CCCO4)CC3)nc(N)c2cc1OC (stereo not drawn) [Terazosin]
[4]
  LogMA: 1.785
[3]
  Solubility: 205 mg/L (≈ 529 µM)

## Clomipramin
[4]
  LogMA: 4.104
Human serum albumin; [6]
  LogHSA: −2.796
[3]
  Solubility: 0.294 mg/L

## C[C@]12CC[C@H]3[C@@H](CCC4=CC(=O)CC[C@@]43C)[C@@H]1CC[C@@H]2O [Testosteron]
[4]
  LogMA: 2.826
Human serum albumin; [6]
  LogHSA: −4.912
[3]
  Solubility: 68 mg/L (≈ 236 µM)

## CC(C)(O/N=C(\C(=O)N[C@@H]1C(=O)N2C(C(=O)[O-])=C(C[n+]3ccccc3)CS[C@H]12)c1csc(N)n1)C(=O)O [Ceftazidime]
[4]
  LogMA: 1.000
Human serum albumin; human
  LogHSA: −2.495
[3]
  Solubility: >500 mg/L

## CCCCNC(=O)NS(=O)(=O)c1ccc(C)cc1 [Tolbutamid]
[3]
  Solubility: 109 mg/L (≈ 403 µM)

## COc1cc(OC)nc(NC(=O)NS(=O)(=O)N(C)S(C)(=O)=O)n1 [amidosulfuron]
[1]
  logP: 1.63
[2]
  pKa: 3.58

## O=C(Nc1nc(OC(F)F)cc(OC(F)F)n1)NS(=O)(=O)c1ccccc1C(=O)O [primisulfuron]
[1]
  logP: 0.06
[2]
  pKa: 3.47

## COc1cc(OC)nc(NC(=O)NS(=O)(=O)Cc2ccccc2C(=O)O)n1 [bensulfuron]
[1]
  logP: 0.62
[2]
  pKa: 5.2

## COc1cc(Cl)nc(NC(=O)NS(=O)(=O)c2ccccc2C(=O)O)n1 [chlorimuron]
[1]
  logP: 0.11
[2]
  pKa: 4.2

## CC(CCc1ccccc1)NCC(O)c1ccc(O)c(C(N)=O)c1 (stereo not drawn) [Labetalol]
[4]
  LogMA: 3.620
[3]
  Solubility: 73 mg/L (≈ 222 µM)

## CC(C)(C)NCC(O)c1cc(O)cc(O)c1 (stereo not drawn) [Terbutaline]
[4]
  LogMA: 0.845
Human serum albumin; human
  LogHSA: −2.398
[3]
  Solubility: 212800 mg/L (≈ 945000 µM)

## C[C@@H]1C[C@H]2[C@@H]3CCC4=CC(=O)C=C[C@]4(C)[C@@]3(F)[C@@H](O)C[C@]2(C)[C@@]1(O)C(=O)CO [Dexamethasone]
[3]
  Solubility: 93 mg/L (≈ 237 µM)

## CC(Oc1ccc(Oc2ccc(Cl)cc2Cl)cc1)C(=O)O (stereo not drawn) [diclofop]
[1]
  logP: 4.5
[2]
  pKa: 3.43

## CO/N=C(\C(=O)N[C@@H]1C(=O)N2C(C(=O)O)=C(CSc3nc(=O)c(=O)[nH]n3C)CS[C@H]12)c1csc(N)n1 [Ceftriaxone]
[4]
  LogMA: 0.903
Human serum albumin; human
  LogHSA: −3.585
[3]
  Solubility: 958 mg/L (≈ 1730 µM)

## CCN(CC)CCNC(=O)c1ccc(NC(C)=O)cc1 [N-Acetylprocainamide]
[4]
  LogMA: 1.176
Human serum albumin; [6]
  LogHSA: −2.268
[3]
  Solubility: >1000 mg/L

## CCn1cc(C(=O)O)c(=O)c2cc(F)c(N3CCNCC3)nc21 [Enoxacin]
[4]
  LogMA: 0.954
Human serum albumin; human
  LogHSA: −2.278
[3]
  Solubility: 34300 mg/L (≈ 107000 µM)

## COC(=O)c1ccccc1S(=O)(=O)NC(=O)Nc1nc(C)cc(C)n1 [sulfometuron-methyl]
[1]
  logP: 1.4
[2]
  pKa: 5.2

## itraconazoles
[5]
  passive oral absorption: can be passively absorbed well

## COc1nc(C)nc(N(C)C(=O)NS(=O)(=O)c2ccccc2C(=O)O)n1 [tribenuron]
[1]
  logP: −0.44
[2]
  pKa: 5

## CN1C(C(=O)Nc2ccccn2)=C(O)c2ccccc2S1(=O)=O [Piroxicam]
[4]
  LogMA: 2.079
Human serum albumin; human
  LogHSA: −5.301
[3]
  Solubility: 521 mg/L (≈ 1570 µM)

## CO/N=C(\C(=O)N[C@@H]1C(=O)N2C(C(=O)O)=C(COC(N)=O)CS[C@H]12)c1ccco1 [Cefuroxime]
[4]
  LogMA: 0.477
Human serum albumin; human
  LogHSA: −2.553
[3]
  Solubility: 145 mg/L (≈ 342 µM)

## CCCC(CCC)C(=O)O [Valproic acid]
[4]
  LogMA: 1.041
Human serum albumin; human
  LogHSA: −3.921
[3]
  Solubility: 895 mg/L (≈ 6210 µM)

## COc1nc(C)nc(NC(=O)NS(=O)(=O)c2ccsc2C(=O)O)n1 [thifensulfuron]
[1]
  logP: 0.02
[2]
  pKa: 4

## CCC(C)n1c(=O)[nH]c(C)c(Br)c1=O (stereo not drawn) [bromacil]
[1]
  logP: 1.88
[2]
  pKa: 9.27

## CN1C(=O)CN=C(c2ccccc2F)c2cc([N+](=O)[O-])ccc21 [Flunitrazepam]
[4]
  LogMA: 2.477
[3]
  Solubility: 72.8 mg/L (≈ 232 µM)

## CC(C)(C)NC[C@H](O)COc1nsnc1N1CCOCC1 [Timolol]
[4]
  LogMA: 1.477
Human serum albumin; human
  LogHSA: −2.000
[3]
  Solubility: 2741 mg/L (≈ 8660 µM)

## CCOC(=O)[C@H](CCc1ccccc1)N[C@@H](C)C(=O)N1CCC[C@H]1C(=O)O [Enalapril]
[4]
  LogMA: 1.000
Human serum albumin; human
  LogHSA: −2.959
